Measurements: article PMC5513037, “Examining the influence of specificity ligands and ATP-competitive ligands on the overall effectiveness of bivalent kinase inhibitors” (Proteome Science, 2017)

Legend:
Experiment in all cases: KAM-matrix competition in K562 lysate;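 on 0.001 uM KAM: median log10 fold change of treatment over DMSO control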;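 on 0.01 uM KAM: median log10 fold change of treatment over DMSO control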;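 on 0.1 uM KAM: median log10 fold change of treatment over DMSO control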;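 on 1 uM KAM: median log10 fold change of treatment over DMSO control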;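 on 10 uM KAM: median log10 fold change of treatment over DMSO control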
Type in all cases: binding
[1] = target: T1, ABL2 (Homo sapiens, UniProt P42684)
T1 construct: endogenous in cells; host or cells: K562
T1 sequence (P42684 whole entry): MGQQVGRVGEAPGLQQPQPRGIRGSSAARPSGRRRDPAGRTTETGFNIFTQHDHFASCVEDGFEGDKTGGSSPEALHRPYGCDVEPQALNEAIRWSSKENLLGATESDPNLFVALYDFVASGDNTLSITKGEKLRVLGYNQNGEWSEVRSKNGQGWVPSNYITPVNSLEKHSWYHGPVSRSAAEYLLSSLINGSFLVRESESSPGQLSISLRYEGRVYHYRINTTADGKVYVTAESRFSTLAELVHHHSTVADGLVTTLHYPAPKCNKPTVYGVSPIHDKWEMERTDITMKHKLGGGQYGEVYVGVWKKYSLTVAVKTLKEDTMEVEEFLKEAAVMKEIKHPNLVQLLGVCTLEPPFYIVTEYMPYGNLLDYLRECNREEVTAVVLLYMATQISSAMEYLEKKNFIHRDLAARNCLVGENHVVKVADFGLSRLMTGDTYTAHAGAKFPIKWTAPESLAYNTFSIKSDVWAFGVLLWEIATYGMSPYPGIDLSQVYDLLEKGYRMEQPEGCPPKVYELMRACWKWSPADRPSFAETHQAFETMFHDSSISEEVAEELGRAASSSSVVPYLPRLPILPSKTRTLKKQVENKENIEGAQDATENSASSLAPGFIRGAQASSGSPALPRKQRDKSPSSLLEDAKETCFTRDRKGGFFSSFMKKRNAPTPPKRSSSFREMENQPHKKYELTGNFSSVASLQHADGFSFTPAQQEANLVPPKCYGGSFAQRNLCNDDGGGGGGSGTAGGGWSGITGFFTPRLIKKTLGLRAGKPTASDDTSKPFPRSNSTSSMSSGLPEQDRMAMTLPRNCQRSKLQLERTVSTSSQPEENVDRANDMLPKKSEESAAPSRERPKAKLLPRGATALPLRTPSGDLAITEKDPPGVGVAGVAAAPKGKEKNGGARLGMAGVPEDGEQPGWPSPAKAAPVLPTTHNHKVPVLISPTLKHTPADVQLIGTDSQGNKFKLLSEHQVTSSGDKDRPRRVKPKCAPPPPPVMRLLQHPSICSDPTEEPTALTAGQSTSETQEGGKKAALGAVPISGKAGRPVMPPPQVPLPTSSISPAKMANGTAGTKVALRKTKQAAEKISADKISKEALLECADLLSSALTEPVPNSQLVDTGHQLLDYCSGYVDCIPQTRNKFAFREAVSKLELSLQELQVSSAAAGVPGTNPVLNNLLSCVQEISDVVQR
Description: (§1) Supplement 12953_2017_125_MOESM1_ESM.zip/MS_Supp Info.xlsx, sheet "KAM" | column: 10 uM KAM; 1 uM KAM; 0.1 uM KAM; 0.01 uM KAM; 0.001 uM KAM; RB50

[2] = target: T2, ADCK3 (Homo sapiens, UniProt Q8NI60);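 on 0.001 uM KAM: median log10 fold change of treatment over DMSO control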;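 on 0.01 uM KAM: median log10 fold change of treatment over DMSO control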;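 on 0.1 uM KAM: median log10 fold change of treatment over DMSO control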;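 on 1 uM KAM: median log10 fold change of treatment over DMSO control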;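 on 10 uM KAM: median log10 fold change of treatment over DMSO control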
T2 construct: endogenous in cells; host or cells: K562
T2 sequence (Q8NI60 163-647): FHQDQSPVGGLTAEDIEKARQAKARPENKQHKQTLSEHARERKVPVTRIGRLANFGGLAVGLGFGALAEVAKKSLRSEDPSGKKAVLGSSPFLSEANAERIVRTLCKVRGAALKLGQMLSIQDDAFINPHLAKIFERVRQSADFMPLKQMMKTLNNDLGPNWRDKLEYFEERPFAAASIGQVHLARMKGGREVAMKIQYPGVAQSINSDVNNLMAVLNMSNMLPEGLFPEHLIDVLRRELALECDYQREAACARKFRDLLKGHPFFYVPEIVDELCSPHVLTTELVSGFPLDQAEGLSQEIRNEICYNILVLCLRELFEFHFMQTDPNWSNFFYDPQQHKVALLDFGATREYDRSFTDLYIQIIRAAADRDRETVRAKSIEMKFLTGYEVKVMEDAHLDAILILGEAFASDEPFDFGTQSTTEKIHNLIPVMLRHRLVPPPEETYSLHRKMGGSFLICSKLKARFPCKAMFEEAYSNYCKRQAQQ
Description: as §1

[3] = target: T3, CDK12 (Homo sapiens, UniProt Q9NYV4)
T3 construct: endogenous in cells; host or cells: K562
T3 sequence (Q9NYV4 whole entry): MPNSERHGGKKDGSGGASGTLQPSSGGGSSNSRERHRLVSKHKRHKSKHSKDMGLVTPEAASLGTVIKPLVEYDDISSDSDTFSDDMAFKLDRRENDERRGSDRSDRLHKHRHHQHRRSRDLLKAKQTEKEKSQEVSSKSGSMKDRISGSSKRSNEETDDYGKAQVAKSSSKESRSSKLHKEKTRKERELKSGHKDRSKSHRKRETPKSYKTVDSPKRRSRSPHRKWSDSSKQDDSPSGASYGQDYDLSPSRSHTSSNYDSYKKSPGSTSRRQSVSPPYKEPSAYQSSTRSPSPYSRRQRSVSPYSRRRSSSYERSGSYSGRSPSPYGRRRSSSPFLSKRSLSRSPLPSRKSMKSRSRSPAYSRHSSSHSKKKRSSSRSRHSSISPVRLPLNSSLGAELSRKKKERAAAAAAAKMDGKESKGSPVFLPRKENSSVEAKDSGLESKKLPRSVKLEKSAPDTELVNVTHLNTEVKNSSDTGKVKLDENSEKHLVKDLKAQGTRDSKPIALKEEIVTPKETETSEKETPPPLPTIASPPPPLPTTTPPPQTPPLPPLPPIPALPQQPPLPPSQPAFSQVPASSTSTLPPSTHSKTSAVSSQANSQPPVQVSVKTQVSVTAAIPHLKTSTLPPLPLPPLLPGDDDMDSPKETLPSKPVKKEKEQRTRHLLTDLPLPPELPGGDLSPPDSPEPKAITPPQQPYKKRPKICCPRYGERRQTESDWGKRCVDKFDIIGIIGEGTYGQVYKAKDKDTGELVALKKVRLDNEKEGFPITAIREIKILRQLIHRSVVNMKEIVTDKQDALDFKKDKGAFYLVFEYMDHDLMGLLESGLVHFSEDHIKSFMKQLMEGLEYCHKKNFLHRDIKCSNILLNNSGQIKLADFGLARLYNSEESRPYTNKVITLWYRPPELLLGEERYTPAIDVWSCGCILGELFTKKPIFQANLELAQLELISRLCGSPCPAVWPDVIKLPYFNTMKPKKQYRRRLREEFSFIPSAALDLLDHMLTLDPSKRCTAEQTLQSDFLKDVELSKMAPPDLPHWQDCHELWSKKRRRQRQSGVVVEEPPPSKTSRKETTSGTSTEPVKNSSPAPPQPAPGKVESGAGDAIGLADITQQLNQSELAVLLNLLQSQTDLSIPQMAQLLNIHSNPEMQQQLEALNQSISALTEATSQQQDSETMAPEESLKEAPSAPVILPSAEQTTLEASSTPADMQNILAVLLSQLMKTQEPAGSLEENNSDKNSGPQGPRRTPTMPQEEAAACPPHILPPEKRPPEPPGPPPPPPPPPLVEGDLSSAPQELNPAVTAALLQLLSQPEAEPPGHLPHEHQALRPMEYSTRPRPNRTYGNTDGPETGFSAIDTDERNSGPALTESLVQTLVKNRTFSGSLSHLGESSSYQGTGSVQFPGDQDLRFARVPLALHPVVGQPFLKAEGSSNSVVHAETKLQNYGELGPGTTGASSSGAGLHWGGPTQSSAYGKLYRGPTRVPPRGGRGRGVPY
T3 sequence (O75909 whole entry partner): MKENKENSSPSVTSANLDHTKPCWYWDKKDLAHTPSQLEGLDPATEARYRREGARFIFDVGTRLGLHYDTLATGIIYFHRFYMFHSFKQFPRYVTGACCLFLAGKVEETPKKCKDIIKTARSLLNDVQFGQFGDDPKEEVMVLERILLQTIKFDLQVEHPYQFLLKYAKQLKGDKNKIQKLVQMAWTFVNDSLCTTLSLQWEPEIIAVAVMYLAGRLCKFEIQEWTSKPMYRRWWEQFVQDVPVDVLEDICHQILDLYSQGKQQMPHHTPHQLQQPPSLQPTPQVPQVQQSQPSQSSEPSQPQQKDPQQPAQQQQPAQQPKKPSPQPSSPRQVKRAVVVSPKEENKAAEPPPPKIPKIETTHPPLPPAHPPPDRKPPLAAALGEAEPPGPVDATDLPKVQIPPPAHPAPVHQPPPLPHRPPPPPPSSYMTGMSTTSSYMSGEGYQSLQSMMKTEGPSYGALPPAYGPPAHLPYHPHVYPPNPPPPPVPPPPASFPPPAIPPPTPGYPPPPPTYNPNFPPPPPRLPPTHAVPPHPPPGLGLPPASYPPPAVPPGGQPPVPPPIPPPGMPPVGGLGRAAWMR
Description: as §1

[4] = target: T4, DYRK1A (Homo sapiens, UniProt Q13627)
T4 construct: endogenous in cells; host or cells: K562
Description: as §1

[5] = target: T5, JAK3 (Homo sapiens, UniProt P52333);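 on 0.001 uM KAM: median log10 fold change of treatment over DMSO control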;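 on 0.01 uM KAM: median log10 fold change of treatment over DMSO control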;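 on 0.1 uM KAM: median log10 fold change of treatment over DMSO control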;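 on 1 uM KAM: median log10 fold change of treatment over DMSO control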;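 on 10 uM KAM: median log10 fold change of treatment over DMSO control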
T5 construct: endogenous in cells; host or cells: K562
T5 sequence (P52333 1-1124): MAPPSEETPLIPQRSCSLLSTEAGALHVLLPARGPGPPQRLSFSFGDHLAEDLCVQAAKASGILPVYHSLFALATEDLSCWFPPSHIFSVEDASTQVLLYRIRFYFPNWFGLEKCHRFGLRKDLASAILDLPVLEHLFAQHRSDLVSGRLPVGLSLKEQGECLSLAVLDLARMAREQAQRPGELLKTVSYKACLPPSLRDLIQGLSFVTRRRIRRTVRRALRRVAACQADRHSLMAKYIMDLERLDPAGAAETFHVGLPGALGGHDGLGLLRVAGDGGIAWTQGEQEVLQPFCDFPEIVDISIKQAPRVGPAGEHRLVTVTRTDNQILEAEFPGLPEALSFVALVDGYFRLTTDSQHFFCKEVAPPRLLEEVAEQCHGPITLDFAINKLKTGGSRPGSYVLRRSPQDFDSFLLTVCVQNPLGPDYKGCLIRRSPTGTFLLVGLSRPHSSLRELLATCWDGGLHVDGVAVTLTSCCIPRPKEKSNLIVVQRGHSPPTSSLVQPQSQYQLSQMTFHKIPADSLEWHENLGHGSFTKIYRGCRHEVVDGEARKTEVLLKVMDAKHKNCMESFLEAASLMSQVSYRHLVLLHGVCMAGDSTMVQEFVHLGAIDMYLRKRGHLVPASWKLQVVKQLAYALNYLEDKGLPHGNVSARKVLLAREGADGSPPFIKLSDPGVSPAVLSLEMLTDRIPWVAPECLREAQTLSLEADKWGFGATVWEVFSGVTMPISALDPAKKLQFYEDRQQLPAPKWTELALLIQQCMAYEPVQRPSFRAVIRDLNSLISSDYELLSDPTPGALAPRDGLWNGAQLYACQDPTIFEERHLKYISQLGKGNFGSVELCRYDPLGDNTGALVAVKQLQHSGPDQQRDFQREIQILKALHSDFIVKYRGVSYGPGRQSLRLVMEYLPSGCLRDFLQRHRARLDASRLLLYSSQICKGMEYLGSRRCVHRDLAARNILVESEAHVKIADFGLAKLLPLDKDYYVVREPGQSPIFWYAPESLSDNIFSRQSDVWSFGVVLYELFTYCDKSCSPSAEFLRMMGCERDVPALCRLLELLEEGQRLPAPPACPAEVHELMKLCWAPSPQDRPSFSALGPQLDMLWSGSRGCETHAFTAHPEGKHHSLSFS
Description: as §1

[6] = target: T6, MAPK3 (Homo sapiens, UniProt P27361)
T6 construct: endogenous in cells; host or cells: K562
T6 sequence (P27361 whole entry): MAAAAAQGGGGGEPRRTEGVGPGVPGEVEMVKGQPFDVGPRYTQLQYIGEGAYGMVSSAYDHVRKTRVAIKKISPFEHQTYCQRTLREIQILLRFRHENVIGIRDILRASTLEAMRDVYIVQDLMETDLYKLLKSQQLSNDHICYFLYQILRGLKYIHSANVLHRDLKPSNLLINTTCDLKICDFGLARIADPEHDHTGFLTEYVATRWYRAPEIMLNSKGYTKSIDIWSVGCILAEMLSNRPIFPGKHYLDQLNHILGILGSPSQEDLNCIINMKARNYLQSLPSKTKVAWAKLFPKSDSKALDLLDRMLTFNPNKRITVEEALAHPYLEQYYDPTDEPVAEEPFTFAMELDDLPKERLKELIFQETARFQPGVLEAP
Description: as §1

[7] = target: T7, RIOK1 (Homo sapiens, UniProt Q9BRS2);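 on 0.001 uM KAM: median log10 fold change of treatment over DMSO control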;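 on 0.01 uM KAM: median log10 fold change of treatment over DMSO control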;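 on 0.1 uM KAM: median log10 fold change of treatment over DMSO control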;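 on 1 uM KAM: median log10 fold change of treatment over DMSO control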;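 on 10 uM KAM: median log10 fold change of treatment over DMSO control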
T7 construct: endogenous in cells; host or cells: K562
T7 sequence (Q9BRS2 1-568): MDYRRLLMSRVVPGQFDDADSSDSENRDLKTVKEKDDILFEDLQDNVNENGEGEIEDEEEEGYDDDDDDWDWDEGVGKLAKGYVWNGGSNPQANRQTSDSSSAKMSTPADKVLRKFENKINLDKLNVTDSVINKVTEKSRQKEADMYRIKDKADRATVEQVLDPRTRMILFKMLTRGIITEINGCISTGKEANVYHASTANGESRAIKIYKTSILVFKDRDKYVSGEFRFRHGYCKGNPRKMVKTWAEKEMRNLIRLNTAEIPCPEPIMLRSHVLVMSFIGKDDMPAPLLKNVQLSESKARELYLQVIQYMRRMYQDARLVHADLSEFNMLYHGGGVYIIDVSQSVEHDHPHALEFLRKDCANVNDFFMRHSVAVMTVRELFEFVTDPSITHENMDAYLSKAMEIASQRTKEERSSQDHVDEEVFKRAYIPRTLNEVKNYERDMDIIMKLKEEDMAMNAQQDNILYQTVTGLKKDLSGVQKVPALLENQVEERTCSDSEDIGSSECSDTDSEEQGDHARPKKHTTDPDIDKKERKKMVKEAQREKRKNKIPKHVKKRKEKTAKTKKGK
Description: as §1

[8] = target: T8, SRPK1 (Homo sapiens, UniProt Q96SB4);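 on 0.001 uM KAM: median log10 fold change of treatment over DMSO control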;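 on 0.01 uM KAM: median log10 fold change of treatment over DMSO control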;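 on 0.1 uM KAM: median log10 fold change of treatment over DMSO control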;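 on 1 uM KAM: median log10 fold change of treatment over DMSO control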;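 on 10 uM KAM: median log10 fold change of treatment over DMSO control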
T8 construct: endogenous in cells; host or cells: K562
T8 sequence (Q96SB4 whole entry): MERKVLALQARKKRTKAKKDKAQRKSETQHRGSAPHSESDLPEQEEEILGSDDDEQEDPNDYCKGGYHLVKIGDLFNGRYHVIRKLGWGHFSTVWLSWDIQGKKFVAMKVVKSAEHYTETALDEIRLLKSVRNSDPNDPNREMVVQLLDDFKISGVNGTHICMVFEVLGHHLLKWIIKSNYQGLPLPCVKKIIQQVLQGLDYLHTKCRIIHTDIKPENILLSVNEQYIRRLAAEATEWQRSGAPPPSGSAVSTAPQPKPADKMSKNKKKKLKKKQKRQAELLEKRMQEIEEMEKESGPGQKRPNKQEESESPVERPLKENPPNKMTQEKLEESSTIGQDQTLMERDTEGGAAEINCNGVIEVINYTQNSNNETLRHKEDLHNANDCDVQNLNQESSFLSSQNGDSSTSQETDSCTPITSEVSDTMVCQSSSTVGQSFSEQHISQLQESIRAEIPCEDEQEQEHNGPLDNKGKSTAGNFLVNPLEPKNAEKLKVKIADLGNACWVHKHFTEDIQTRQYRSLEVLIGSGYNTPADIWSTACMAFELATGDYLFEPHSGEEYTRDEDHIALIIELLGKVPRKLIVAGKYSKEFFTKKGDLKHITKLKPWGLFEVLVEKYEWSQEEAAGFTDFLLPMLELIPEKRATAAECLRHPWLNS
Description: as §1

[9] = target: T9, TLK2 (Homo sapiens, UniProt Q86UE8);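 on 0.001 uM KAM: median log10 fold change of treatment over DMSO control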;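 on 0.01 uM KAM: median log10 fold change of treatment over DMSO control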;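 on 0.1 uM KAM: median log10 fold change of treatment over DMSO control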;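 on 1 uM KAM: median log10 fold change of treatment over DMSO control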;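 on 10 uM KAM: median log10 fold change of treatment over DMSO control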
T9 construct: endogenous in cells; host or cells: K562
Description: as §1

[10] = read-out: RB50 (the source's name)
[11] = KAM 0.001-10 uM, read-out: RB50 (the source's name)

Compound: N#CCc1ccc(Nc2nc(NCCCN)cc(Nc3cc(C4CC4)[nH]n3)n2)cc1 [KAM]
- median Log10 fold change ([1]; 0.001 uM KAM): -0.03166
- median Log10 fold change ([1]; 0.01 uM KAM): -0.02797
- median Log10 fold change ([1]; 0.1 uM KAM): -0.1724
- median Log10 fold change ([1]; 1 uM KAM): -0.2861
- median Log10 fold change ([1]; 10 uM KAM): -0.4205
- IC50 [1, 10]: 1220 nM
- IC50 [2, 11]: > 10000 nM
- 0.001 uM KAM ([2]; relative to 0 uM KAM = 0): -0.001841
- 0.01 uM KAM ([2]; relative to 0 uM KAM = 0): 0.006632
- 0.1 uM KAM ([2]; relative to 0 uM KAM = 0): 0.0007813
- 1 uM KAM ([2]; relative to 0 uM KAM = 0): 0.03707
- 10 uM KAM ([2]; relative to 0 uM KAM = 0): -0.06845
- median Log10 fold change ([3]; 0.001 uM KAM): 0.006765
- median Log10 fold change ([3]; 0.01 uM KAM): 0.002685
- median Log10 fold change ([3]; 0.1 uM KAM): -0.1288
- median Log10 fold change ([3]; 1 uM KAM): -0.2742
- median Log10 fold change ([3]; 10 uM KAM): -0.4096
- IC50 [3, 10]: 1570 nM
- median Log10 fold change ([4]; 0.001 uM KAM): -0.05439
- median Log10 fold change ([4]; 0.01 uM KAM): -0.0501
- median Log10 fold change ([4]; 0.1 uM KAM): -0.184
- median Log10 fold change ([4]; 1 uM KAM): -0.2641
- median Log10 fold change ([4]; 10 uM KAM): -0.4024
- IC50 [4, 10]: 1470 nM
- IC50 [5, 11]: > 10000 nM
- 0.001 uM KAM ([5]; relative to 0 uM KAM = 0): -0.04271
- 0.01 uM KAM ([5]; relative to 0 uM KAM = 0): -0.0544
- 0.1 uM KAM ([5]; relative to 0 uM KAM = 0): -0.1188
- 1 uM KAM ([5]; relative to 0 uM KAM = 0): -0.2952
- 10 uM KAM ([5]; relative to 0 uM KAM = 0): -0.1976
- median Log10 fold change ([6]; 0.001 uM KAM): -0.06334
- median Log10 fold change ([6]; 0.01 uM KAM): -0.0563
- median Log10 fold change ([6]; 0.1 uM KAM): -0.1467
- median Log10 fold change ([6]; 1 uM KAM): -0.2435
- median Log10 fold change ([6]; 10 uM KAM): -0.361
- IC50 [6, 10]: 2360 nM
- IC50 [7, 11]: > 10000 nM
- 0.001 uM KAM ([7]; relative to 0 uM KAM = 0): -0.005877
- 0.01 uM KAM ([7]; relative to 0 uM KAM = 0): -0.06085
- 0.1 uM KAM ([7]; relative to 0 uM KAM = 0): -0.03934
- 1 uM KAM ([7]; relative to 0 uM KAM = 0): 0.04921
- 10 uM KAM ([7]; relative to 0 uM KAM = 0): -0.001737
- IC50 [8, 11]: > 10000 nM
- 0.001 uM KAM ([8]; relative to 0 uM KAM = 0): -0.01052
- 0.01 uM KAM ([8]; relative to 0 uM KAM = 0): -0.04054
- 0.1 uM KAM ([8]; relative to 0 uM KAM = 0): 0.02779
- 1 uM KAM ([8]; relative to 0 uM KAM = 0): -0.002878
- 10 uM KAM ([8]; relative to 0 uM KAM = 0): -0.01305
- IC50 [9, 11]: > 10000 nM
- 0.001 uM KAM ([9]; relative to 0 uM KAM = 0): -0.002954
- 0.01 uM KAM ([9]; relative to 0 uM KAM = 0): -0.03195
- 0.1 uM KAM ([9]; relative to 0 uM KAM = 0): -0.07515
- 1 uM KAM ([9]; relative to 0 uM KAM = 0): 0.001633
- 10 uM KAM ([9]; relative to 0 uM KAM = 0): -0.09222
